Results taken from ChEMBL document CHEMBL1144998, “C(8) substituted 1-azabicyclo[3.3.1]non-3-enes and C(8) substituted 1-azabicyclo[3.3.1]nonan-4-ones: novel muscarinic receptor antagonists” (J Med Chem, 2003).

Tests used:
[1] = biological target: T1, Muscarinic acetylcholine receptor M1 (Homo sapiens, UniProt P11229); assay: Binding affinity of compound was determined towards human Muscarinic acetylcholine receptor M1 using [3H]QNB radioligand
T1 sequence (P11229 whole entry): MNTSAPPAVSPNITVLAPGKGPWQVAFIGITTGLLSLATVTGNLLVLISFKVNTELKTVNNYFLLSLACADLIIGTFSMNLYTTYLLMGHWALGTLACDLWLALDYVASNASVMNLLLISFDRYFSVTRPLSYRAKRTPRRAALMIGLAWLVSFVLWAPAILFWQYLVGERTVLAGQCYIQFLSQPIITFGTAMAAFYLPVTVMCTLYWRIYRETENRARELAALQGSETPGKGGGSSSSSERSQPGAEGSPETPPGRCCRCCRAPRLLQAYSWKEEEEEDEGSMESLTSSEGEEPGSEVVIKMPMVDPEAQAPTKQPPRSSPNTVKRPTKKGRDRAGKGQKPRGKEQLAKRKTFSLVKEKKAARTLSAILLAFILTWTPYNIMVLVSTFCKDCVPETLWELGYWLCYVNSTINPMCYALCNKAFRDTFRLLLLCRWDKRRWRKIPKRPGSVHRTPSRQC

[2] = biological target: T2, Muscarinic acetylcholine receptor M5 (Homo sapiens, UniProt P08912); assay: Binding affinity of compound was determined towards human Muscarinic acetylcholine receptor M5 using [3H]QNB radioligand
T2 sequence (P08912 whole entry): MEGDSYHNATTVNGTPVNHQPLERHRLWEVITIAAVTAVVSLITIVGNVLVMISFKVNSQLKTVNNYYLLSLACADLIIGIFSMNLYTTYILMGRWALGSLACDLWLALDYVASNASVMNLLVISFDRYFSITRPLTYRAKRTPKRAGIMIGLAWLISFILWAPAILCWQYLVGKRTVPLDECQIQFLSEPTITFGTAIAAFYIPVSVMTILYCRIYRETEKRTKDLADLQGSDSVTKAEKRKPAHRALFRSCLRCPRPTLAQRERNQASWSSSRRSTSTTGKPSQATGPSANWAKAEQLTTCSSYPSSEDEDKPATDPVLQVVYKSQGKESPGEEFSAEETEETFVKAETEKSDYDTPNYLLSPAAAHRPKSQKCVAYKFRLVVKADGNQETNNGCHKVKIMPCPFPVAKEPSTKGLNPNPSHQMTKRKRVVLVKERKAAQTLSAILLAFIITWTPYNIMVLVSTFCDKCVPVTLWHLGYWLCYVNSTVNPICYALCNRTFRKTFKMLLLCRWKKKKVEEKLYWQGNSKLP

[3] = biological target: Muscarinic acetylcholine receptor M3 (Homo sapiens, UniProt P20309); assay: Binding affinity of compound was determined towards human Muscarinic acetylcholine receptor M3 using [3H]QNB radioligand
Sequence of Muscarinic acetylcholine receptor M3 (P20309 whole entry): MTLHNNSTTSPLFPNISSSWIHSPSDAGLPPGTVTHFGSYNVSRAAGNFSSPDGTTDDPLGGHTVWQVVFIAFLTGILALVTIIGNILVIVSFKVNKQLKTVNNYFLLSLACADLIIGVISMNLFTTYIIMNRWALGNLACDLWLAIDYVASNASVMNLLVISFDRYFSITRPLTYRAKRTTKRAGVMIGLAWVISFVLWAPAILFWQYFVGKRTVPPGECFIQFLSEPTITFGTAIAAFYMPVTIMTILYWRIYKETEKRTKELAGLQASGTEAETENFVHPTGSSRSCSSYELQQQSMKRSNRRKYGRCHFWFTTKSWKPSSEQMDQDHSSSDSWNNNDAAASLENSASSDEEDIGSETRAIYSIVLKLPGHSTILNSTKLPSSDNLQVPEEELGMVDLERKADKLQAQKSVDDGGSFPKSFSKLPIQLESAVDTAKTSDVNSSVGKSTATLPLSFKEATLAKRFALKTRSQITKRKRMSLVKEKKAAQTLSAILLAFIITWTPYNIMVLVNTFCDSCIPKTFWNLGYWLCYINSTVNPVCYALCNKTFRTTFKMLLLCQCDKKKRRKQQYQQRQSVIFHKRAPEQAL

[4] = biological target: T3, Muscarinic acetylcholine receptor M2 (Homo sapiens, UniProt P08172); assay: Binding affinity of compound was determined towards human Muscarinic acetylcholine receptor M2 using [3H]QNB radioligand
T3 sequence (P08172 whole entry): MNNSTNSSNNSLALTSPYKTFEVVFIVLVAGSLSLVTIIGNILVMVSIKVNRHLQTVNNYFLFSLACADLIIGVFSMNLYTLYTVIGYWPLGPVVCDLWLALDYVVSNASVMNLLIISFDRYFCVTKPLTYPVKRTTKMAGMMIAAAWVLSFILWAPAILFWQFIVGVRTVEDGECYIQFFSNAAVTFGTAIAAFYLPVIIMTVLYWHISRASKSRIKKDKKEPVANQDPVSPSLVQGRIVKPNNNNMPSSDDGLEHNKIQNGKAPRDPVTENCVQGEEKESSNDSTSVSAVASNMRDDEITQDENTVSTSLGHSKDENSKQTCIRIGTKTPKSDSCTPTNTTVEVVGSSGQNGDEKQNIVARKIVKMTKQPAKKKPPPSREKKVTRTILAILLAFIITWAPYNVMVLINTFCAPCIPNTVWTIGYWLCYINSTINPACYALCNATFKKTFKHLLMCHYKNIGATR

[5] = biological target: T4, Muscarinic acetylcholine receptor M4 (Homo sapiens, UniProt P08173); assay: Binding affinity of compound was determined towards human Muscarinic acetylcholine receptor M4 using [3H]QNB radioligand
T4 sequence (P08173 whole entry): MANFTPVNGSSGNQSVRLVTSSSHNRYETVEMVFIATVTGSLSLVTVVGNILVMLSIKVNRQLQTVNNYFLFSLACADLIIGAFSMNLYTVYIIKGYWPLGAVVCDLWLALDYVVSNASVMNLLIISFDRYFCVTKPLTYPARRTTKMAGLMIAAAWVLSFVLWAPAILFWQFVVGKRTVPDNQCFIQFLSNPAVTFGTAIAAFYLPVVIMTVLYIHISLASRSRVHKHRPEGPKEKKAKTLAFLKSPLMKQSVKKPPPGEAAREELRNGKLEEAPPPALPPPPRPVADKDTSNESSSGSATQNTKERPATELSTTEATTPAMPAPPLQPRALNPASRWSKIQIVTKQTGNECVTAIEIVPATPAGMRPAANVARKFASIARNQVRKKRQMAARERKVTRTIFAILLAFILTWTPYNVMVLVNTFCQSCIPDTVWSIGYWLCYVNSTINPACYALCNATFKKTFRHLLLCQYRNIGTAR

SMILES	Ki [1]	Ki [2]	Ki [3]	Ki [4]	Ki [5]
CCO/C(O)=C1\CN2CC(CCC2CN(C)C)C1=O (stereo in doubt; 5)	> 100000 nM	> 100000 nM	> 100 µM	86 µM	> 100000 nM
CCO/C(O)=C1\CN2CC(CCC2COCc2ccccc2)C1=O (stereo in doubt; 4)	6600 nM	3000 nM	7.5 µM	4.1 µM	11000 nM
CCO/C(O)=C1\CN2CC(CCC2CN(C)C)C1=O (stereo in doubt; 6)	–	–	37 µM	> 100 µM	–
CCO/C(O)=C1\CN2CCCC(C2)C1=O (configuration not stated)	1200 nM	980 nM	1.5 µM	1.6 µM	2600 nM
CCO/C(O)=C1\CN2CC(CCC2COCc2ccccc2)C1=O (stereo in doubt; 3)	250 nM	560 nM	0.84 µM	0.08 µM	270 nM
